According to ChEMBL document CHEMBL4390655, “N,N-bis-heteroaryl methylamines: Potent anti-mitotic and highly cytotoxic agents” (Eur J Med Chem, 2019):
The source made the active and inactive calls. No cut-off for these calls is given here.

Columns and labels:
HCT-116 [1] = experiment: Cytotoxicity against human HCT116 cells assessed as reduction in cell growth measured after 72 hrs by MTS assay; type: functional, cell-based
[2] = Inhibition of sheep brain tubulin polymerization in presence of GTP by DAPI based fluorimetric method; parameters: species or system Ovis aries
JIMT-1 = experiment: Cytotoxicity against human JIMT1 cells assessed as reduction in cell growth measured after 72 hrs by MTS assay; type: functional, cell-based; settings: JIMT-1, 72 h
HCT-116 [3] = experiment: Cell cycle arrest in human HCT116 cells assessed as accumulation at G2/M phase incubated for 24 hrs by propidium iodide staining based flow cytometry; type: functional
HUVEC [4] = experiment: Antiproliferative activity against human HUVEC assessed as growth inhibition up to 5 hrs; type: cell-based
HCT-116 [5] = experiment: Induction of apoptosis in human HCT116 cells assessed as caspase-3/7 activation at 0.1 to 10 nM after 24 hrs by Apo-one caspase 3/7 assay; type: functional, cell-based
MIA PaCa-2 = experiment: Cytotoxicity against human MIAPaCa2 cells assessed as reduction in cell growth measured after 72 hrs by MTS assay; type: functional, cell-based; settings: MIA PaCa-2, 72 h
HCT-116 [6] = experiment: Cell cycle arrest in human HCT116 cells assessed as accumulation at S phase at 5 nM incubated for 24 hrs by propidium iodide staining based flow cytometry (reference value: 40%); type: functional
[7] = Cytotoxicity against human A2780R cells assessed as reduction in cell growth measured after 72 hrs by MTS assay; type: functional, cell-based
HCT-116 [8] = experiment: Cell cycle arrest in human HCT116 cells assessed as accumulation at G2/M phase at 10 nM incubated for 24 hrs by propidium iodide staining based flow cytometry (reference value: 23%); type: functional
HCT-116 [9] = experiment: Cell cycle arrest in human HCT116 cells assessed as accumulation at S phase at 10 nM incubated for 24 hrs by propidium iodide staining based flow cytometry (reference value: 40%); type: functional
HCT-116 [10] = experiment: Cell cycle arrest in human HCT116 cells assessed as accumulation at S phase at 1 nM incubated for 24 hrs by propidium iodide staining based flow cytometry (reference value: 40%); type: functional
[11] = Antiproliferative activity against HUVEC assessed as growth inhibition after 72 hrs; type: cell-based; settings: human, HUVEC cells
K562 = experiment: Cytotoxicity against human K562 cells assessed as reduction in cell growth measured after 72 hrs by MTS assay; type: functional, cell-based; settings: K562, 72 h
HCT-116 [12] = experiment: Cell cycle arrest in human HCT116 cells assessed as accumulation at G0/G1 phase at 1 nM incubated for 24 hrs by propidium iodide staining based flow cytometry (reference value: 37%); type: functional
HUVEC [13] = experiment: Antivascular activity against HUVEC assessed as reduction in capillary like tube formation by measuring disruption of cell network integrity at 10 nM measured up to 5 hrs by matrigel method relative to control; type: functional, cell-based; settings: Homo sapiens
HCT-116 [14] = experiment: Cell cycle arrest in human HCT116 cells assessed as accumulation at G2/M phase at 5 nM incubated for 24 hrs by propidium iodide staining based flow cytometry (reference value: 23%); type: functional
HCT-116 [15] = experiment: Cell cycle arrest in human HCT116 cells assessed as accumulation at G0/G1 phase at 10 nM incubated for 24 hrs by propidium iodide staining based flow cytometry (reference value: 37%); type: functional
HCT-116 [16] = experiment: Cell cycle arrest in human HCT116 cells assessed as accumulation at G2/M phase at 1 nM incubated for 24 hrs by propidium iodide staining based flow cytometry (reference value: 23%); type: functional
K-562R = experiment: Cytotoxicity against human K562R cells assessed as reduction in cell growth measured after 72 hrs by MTS assay; type: functional, cell-based
A2780 = experiment: Cytotoxicity against human A2780 cells assessed as reduction in cell growth measured after 72 hrs by MTS assay; type: functional, cell-based; settings: A2780, 72 h
HCT-116 [17] = experiment: Cell cycle arrest in human HCT116 cells assessed as accumulation at G0/G1 phase at 5 nM incubated for 24 hrs by propidium iodide staining based flow cytometry (reference value: 37%); type: functional
[18] = Homo sapiens, HCT-116, 72 h, read-out: IC50

IC50 [2] | IC50 ([2]; read-out: IC50) [nM] | Compound | IC50 (HCT-116 [1]; [18]) [nM] | further results
Not Active |  | COc1ccc(N(C)c2cc(C)nc3ccccc23)nc1Cl | 462 | 
Not Active |  | CN(c1ccc2c(c1)c1ccccc1n2C)c1ccnc2ccccc12 | 943 | 
Not Active |  | Cc1cc(N(C)c2ccc3c(c2)c2cc([N+](=O)[O-])ccc2n3C)c2ccccc2n1 |  | IC50 (HCT-116 [1]; hct-116): Not Active
 | 1160 | CN(c1ccc2c(c1)c1ccccc1n2C)c1cc(Cl)nc2ccccc12 | 16.7 | 
Not Active |  | Cc1cc(N(C)c2ccc3c(c2)c2ccccc2n3Cc2ccccc2)c2ccccc2n1 |  | IC50 (HCT-116 [1]; hct-116): Not Active
Not Active |  | Cc1cc(N(C)c2ccc3c(c2)c2cc(C(C)O)ccc2n3C)c2ccccc2n1 (stereo not given) | 219 | 
Not Active |  | COc1ccc2c(ccn2-c2cc(C)nc3ccccc23)c1 | 482 | 
Not Active |  | CCn1c2ccccc2c2cc(N(C)c3cc(C)nc4ccccc34)ccc21 | 186 | 
 | 1480 | COc1cccc2c(N(C)c3ccc4c(c3)c3ccccc3n4C)cc(C)nc12 | 21.6 | 
 | 2500 | CN(c1ccc2c(ccn2C)c1)c1cc(C(F)(F)F)nc2ccccc12 | 3.28 | 
 | 1340 | Cc1cc(N(C)c2ccc3c(ccn3C)c2)c2ccccc2n1 | 2 | 
 | 900 | COc1ccc(N(C)c2cc(C)nc3ccccc23)nc1N | 1.73 | 
 | 4080 | Cc1cc(N(C)c2ccc3c(c2)OCCO3)c2ccccc2n1 | 20.7 | 
 | 2760 | Cc1cc(N(C)c2ccc3c(c2)c2cc(N)ccc2n3C)c2ccccc2n1 | 2.88 | 
Not Active |  | Cc1cc(N(C)c2ccc3[nH]c4ccccc4c3c2)c2ccccc2n1 |  | IC50 (HCT-116 [1]; hct-116): Not Active
Not Active |  | Cc1cc(N(C)c2ccc3c(c2)c2ccccc2n3C)ccn1 | 879 | 
 | 1240 | Cc1cc(N(C)c2ccc3c(c2)c2ccccc2n3C)c2cccc(O)c2n1 | 50.6 | 
Not Active |  | Cn1c2ccccc2c2cc([N+](C)(C)c3ccnc4ccccc34)ccc21.[I-] | 891 | 
 | 1400 | CN(c1ccc2c(c1)c1ccccc1n2C)c1cc(C#N)nc2ccccc12 | 12 | 
 | 1130 | Cc1cc(N(C)c2ccc3c(c2)c2ccccc2n3C)c2ccccc2n1 | 0.07 | IC50 (JIMT-1): 0.36 nM; Activity (HCT-116 [3]): Dose-dependent effect; Activity (HUVEC [4]): Non-Toxic; Activity (HCT-116 [5]): Dose-dependent effect; IC50 (MIA PaCa-2): 0.47 nM; Activity (HCT-116 [6]): 12%; IC50 [7]: 0.54 nM; Activity (HCT-116 [8]): 82%; Activity (HCT-116 [9]): 18%; Activity (HCT-116 [10]): 40%; GI50 at 72 h [11]: 3.23 nM; IC50 (K562): 0.6 nM; Activity (HCT-116 [12]): 35%; Activity (HUVEC [13]): Active; Activity (HCT-116 [14]): 80%; Activity (HCT-116 [15]): 0%; Activity (HCT-116 [16]): 25%; IC50 (K-562R): 0.28 nM; IC50 (A2780): 0.53 nM; Activity (HCT-116 [17]): 8%
Not Active |  | CN(c1ccc2c(c1)c1ccccc1n2C)c1cc(C(F)(F)F)nc2ccccc12 | 847 | 
 | 3800 | Cc1nc(N(C)c2ccc3c(c2)c2ccccc2n3C)c2ccccc2n1 | 2.4 | 
 | 3140 | CN(c1ccc2c(c1)c1ccccc1n2C)c1nc(Cl)nc2ccccc12 | 1.06 | 
Not Active |  | C=C(c1cc(N(C)c2cc(C)nc3ccccc23)ccc1OC)c1cc(C)nc2ccccc12 | 969 | 
 | 5760 | Cc1cc(N(C)c2ccc3c(c2)c2ccccc2n3C)c2cc(N)ccc2n1 | 24.5 | 
Not Active |  | Cc1cc(N(C)c2ccc3c(c2)c2ccccc2n3C)c2cc([N+](=O)[O-])ccc2n1 | 623 | 
Not Active |  | Cc1cc(N(C)c2ccc3oc4ccccc4c3c2)c2ccccc2n1 | 844 | 
Not Active |  | COc1ccc(N(C)c2cc(C)nc3ccccc23)nc1O | 205 | 
 | 1190 | CN(c1ccc2c(ccn2C)c1)c1nc(Cl)nc2ccccc12 | 0.2 | IC50 (JIMT-1): 0.52 nM; IC50 (MIA PaCa-2): 0.62 nM; IC50 [7]: 2.34 nM; IC50 (K562): 0.77 nM; IC50 (K-562R): 1.77 nM; IC50 (A2780): 0.24 nM

Compound | IC50 [2] | IC50 ([2]; read-out: IC50) [nM] | IC50 (HCT-116 [1]; [18]) [nM] | further results
C=C(c1ccc(OC)c(O)c1)c1cc(OC)c(OC)c(OC)c1 |  | 1000 | 1.8 | IC50 (JIMT-1): 3.08 nM; IC50 (MIA PaCa-2): 5 nM; IC50 [7]: 2.66 nM; IC50 (A2780): 3.01 nM
